A word on the IC50: it is the concentration needed to halve the response being measured.

One experiment deals with T1, G1 APOL1 (Homo sapiens, UniProt O14791, I384M/S342G).
T1 construct: expressed in transfected cells
T1 sequence (O14791 28-398 S342G/I384M): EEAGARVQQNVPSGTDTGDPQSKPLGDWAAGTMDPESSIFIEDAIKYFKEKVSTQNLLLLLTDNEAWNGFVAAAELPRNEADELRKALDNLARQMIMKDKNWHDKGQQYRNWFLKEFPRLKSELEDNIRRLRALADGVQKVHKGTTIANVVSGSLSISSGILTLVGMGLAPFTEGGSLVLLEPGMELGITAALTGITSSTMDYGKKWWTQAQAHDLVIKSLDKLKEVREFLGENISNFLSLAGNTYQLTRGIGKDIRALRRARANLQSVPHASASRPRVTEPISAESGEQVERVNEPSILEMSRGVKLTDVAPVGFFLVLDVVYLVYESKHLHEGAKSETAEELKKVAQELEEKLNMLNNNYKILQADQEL
The experiment is described as follows: Acute APOL1 Thallium Assay with Inducible Stable Clones of HEK 293 Cells. Format: cell-based. The settings on record: HEK 293 inducible stable clones, G1 APOL1; read-out: Thallium Assay (IC50). Summed up:
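HEK293 T-Rex cells with a stable tetracycline-inducible G1 APOL1 construct (clone DC3.25) were induced with tetracycline at plating, 26000 cells per well, then incubated at 37° C. They were loaded with an AM-ester thallium-sensitive dye and stimulated with Tl+. The fluorescence rise measured Tl+ influx through APOL1 pores.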

For the next experiment, the target named is T2, APOL1 G1 Protein (Homo sapiens, UniProt O14791, I384M/S342G).
T2 sequence (O14791 28-398 S342G/I384M): T1 sequence (O14791 28-398 S342G/I384M)
Description: Trypanosoma brucei brucei Lysis Assay Using APOL1 Recombinant Protein (AlamarBlue viability). The settings on record: read-out: Trypanosomal Assay (IC50). The class given is cell-based. Summed up:
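Lister 427 bloodstream-form trypanosomes seeded at 120,000 per well in phenol-red-free, serum-free medium and lysed with recombinant APOL1 variant protein. Viability read by AlamarBlue (resazurin) fluorescence. Percent viability relative to untreated wells, interpolated from a standard curve of seeded parasites.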

Bounds are passed on as bounds.

Regarding `CC(NC(=O)CCc1c(-c2ccc(F)cc2)[nH]c2c(F)cc(F)cc12)c1ccn(C)n1` (racemic) [Compound 133], the IC50 was 250 to 1000 nM on G1 APOL1 and > 1000 nM on APOL1 G1 Protein.
The matching figures for `CC(C)(C)OC(=O)NC1CCCN(C(=O)CCc2c(-c3ccc(F)cc3)[nH]c3ccc(F)cc23)C1` (stereo not drawn) [Compound 66]: > 1000 nM and > 1000 nM.
The matching figures for `O=C(CCc1c(-c2ccc(F)cc2)[nH]c2c(F)cc(F)cc12)Nc1nc(C(F)(F)F)co1` [Compound 171]: > 1000 nM and > 1000 nM.
For `O=C(CCc1c(-c2ccc(F)cc2)[nH]c2c(F)cc(F)cc12)NC[C@H](O)C(F)(F)F` [Compound 114] the same measures were > 1000 nM and > 1000 nM.
`CC(NC(=O)CCc1c(-c2ccc(F)cc2)[nH]c2ccc(F)cc12)C(N)=O` (racemic) [Compound 13]: the half-maximal inhibitory concentration (IC50) on G1 APOL1 was 250 to 1000 nM; at APOL1 G1 Protein, > 1000 nM.
With `O=C(CCc1c(-c2ccc(F)cc2)[nH]c2ccc(F)cc12)N1CCC(F)C1` (stereo not drawn) [Compound 55], the IC50 on G1 APOL1 and on APOL1 G1 Protein was > 1000 nM in each case.
Regarding `CN1CC(NC(=O)CCc2c(-c3ccc(F)cc3)[nH]c3ccc(F)cc23)C(=O)N1` (stereo not drawn) [Compound 41], the IC50 at G1 APOL1 and at APOL1 G1 Protein was > 1000 nM in each case.
`CC(CO)NC(=O)CCc1c(-c2ccc(F)cc2)[nH]c2ccc(F)cc12` (racemic) [Compound 9]: the IC50 on G1 APOL1 and at APOL1 G1 Protein was < 250 nM throughout.
Consider `O=C(CCc1c(-c2ccc(F)cc2)[nH]c2ccc(F)cc12)NCCCO` [Compound 85], for which the 50% inhibitory concentration (IC50) at G1 APOL1 and on APOL1 G1 Protein was > 1000 nM in each case.
As to `NC(=O)[C@H](CO)NC(=O)CCc1c(-c2ccc(F)cc2)[nH]c2c(F)cc(F)cc12` [Compound 123], the IC50 at G1 APOL1 and on APOL1 G1 Protein was > 1000 nM each time.
For `O=C(CCc1c(-c2ccc(F)cc2)[nH]c2c(F)cc(F)cc12)Nc1cccc(=O)[nH]1` [Compound 170], the half-maximal inhibitory concentration (IC50) at G1 APOL1 and on APOL1 G1 Protein was > 1000 nM throughout.
In the case of `O=C(CCc1c(-c2ccc(F)cc2)[nH]c2c(F)ccc(F)c12)N[C@@H](CO)C(F)(F)F` [Compound 232, 3-[4,7-difluoro-2-(4-fluorophenyl)-1H-indol-3-yl]-N-[(1S)-2,2,2-trifluoro-1-(hydroxymethyl)ethyl]propanamide], the half-maximal inhibitory concentration (IC50) on G1 APOL1 and at APOL1 G1 Protein was 250 to 1000 nM each time.
For `Cc1cc(NC(=O)CCc2c(-c3ccc(F)cc3)[nH]c3ccc(F)cc23)no1` [Compound 526], the IC50 at G1 APOL1 and on APOL1 G1 Protein was > 1000 nM throughout.
As to `O=C(CCc1c(-c2ccc(F)cc2)[nH]c2ccc(F)cc12)Nc1cc[nH]n1` [Compound 70], the values for the IC50 on G1 APOL1 and at APOL1 G1 Protein were 250 to 1000 nM and > 1000 nM, respectively.
In the case of `C[C@@H](CO)NC(=O)NCCc1c(-c2ccc(F)cc2)[nH]c2c(F)cc(F)cc12` [Compound 283], the half-maximal inhibitory concentration (IC50) on G1 APOL1 and at APOL1 G1 Protein was < 250 nM throughout.
For the compound `CC[C@@H](CO)NC(=O)CCc1c(-c2ccc(F)cc2)[nH]c2ccc(F)cc12` [Compound 80], the IC50 on G1 APOL1 and on APOL1 G1 Protein was > 1000 nM each time.
For the compound `O=C(CCc1c(-c2ccc(F)cc2)[nH]c2c(F)cc(F)cc12)NC1(C(F)(F)F)CC1` [Compound 129], the half-maximal inhibitory concentration (IC50) on G1 APOL1 and on APOL1 G1 Protein was > 1000 nM throughout.
Consider `C#CC(CO)CNC(=O)CCc1c(-c2ccc(F)cc2)[nH]c2c(F)cc(F)cc12` (stereo not drawn) [Compound 118], for which the IC50 at G1 APOL1 and at APOL1 G1 Protein was 250 to 1000 nM in each case.
As to `CN(CCO)C(=O)CCc1c(-c2ccc(F)cc2)[nH]c2c(F)cc(F)cc12` [Compound 143], the IC50 at G1 APOL1 and on APOL1 G1 Protein was > 1000 nM throughout.
With `O=C(CCc1c(-c2ccc(F)cc2)[nH]c2c(F)cc(F)cc12)NC1CCC1(F)F` (stereo not drawn) [Compound 124], the IC50 at G1 APOL1 is 250 to 1000 nM; at APOL1 G1 Protein it was > 1000 nM.
As for `Cn1ccc(NC(=O)CCc2c(-c3ccc(F)cc3)[nH]c3c(F)cc(F)cc23)n1` [Compound 163], the half-maximal inhibitory concentration (IC50) at G1 APOL1 and at APOL1 G1 Protein was > 1000 nM throughout.
Turning to `OCCCc1c(-c2ccc(F)cc2)[nH]c2c(F)cc(F)cc12` [Compound 517, 3-[5,7-difluoro-2-(4-fluorophenyl)-1H-indol-3-yl]propan-1-ol], the half-inhibitory concentration (IC50) on G1 APOL1 and at APOL1 G1 Protein was < 250 nM each time.
As for `C[C@@H](CO)NC(=O)CCc1c(-c2ccc(F)cc2)[nH]c2c(F)cc(F)cc12` [Compound 109], the 50% inhibitory concentration (IC50) on G1 APOL1 and at APOL1 G1 Protein was 250 to 1000 nM throughout.
`CC(C)(C)OC(=O)N[C@H]1C[C@@H](NC(=O)CCc2c(-c3ccc(F)cc3)[nH]c3ccc(F)cc23)C1` [Compound 83]: the IC50 on G1 APOL1 and at APOL1 G1 Protein was > 1000 nM each time.
In the case of `COCC1(NC(=O)CCc2c(-c3ccc(F)cc3)[nH]c3c(F)cc(F)cc23)CC1` [Compound 102], the concentration for half-maximal inhibition (IC50) at G1 APOL1 and at APOL1 G1 Protein was 250 to 1000 nM in each case.
Regarding `CC(C)(C)OC(=O)N1C[C@H](NC(=O)CCc2c(-c3ccc(F)cc3)[nH]c3ccc(F)cc23)[C@@H](O)C1` [Compound 76], the half-maximal inhibitory concentration (IC50) at G1 APOL1 and on APOL1 G1 Protein was > 1000 nM in each case.
Consider `NC1CCC(NC(=O)CCc2c(-c3ccc(F)cc3)[nH]c3ccc(F)cc23)C1` (stereo not drawn) [Compound 7], for which the IC50 on G1 APOL1 and at APOL1 G1 Protein was > 1000 nM each time.
`O=C(CCc1c(-c2ccc(F)cc2)[nH]c2c(F)cc(F)cc12)N[C@@H](CO)C(F)(F)F` [Compound 121]: the concentration for half-maximal inhibition (IC50) on G1 APOL1 and on APOL1 G1 Protein was < 250 nM each time.
Turning to `Cc1csc(NC(=O)CCc2c(-c3ccc(F)cc3)[nH]c3c(F)cc(F)cc23)n1` [Compound 125], the IC50 at G1 APOL1 and at APOL1 G1 Protein was > 1000 nM each time.
`CC(C)(C)OC(=O)NC1CCC(NC(=O)CCc2c(-c3ccc(F)cc3)[nH]c3ccc(F)cc23)C1` (stereo not drawn) [Compound 60]: the IC50 at G1 APOL1 and at APOL1 G1 Protein was > 1000 nM in each case.
Turning to `CC(NC(=O)CCc1c(-c2ccc(F)cc2)[nH]c2c(F)cc(F)cc12)C(F)(F)F` (racemic) [Compound 115], the IC50 at G1 APOL1 and at APOL1 G1 Protein was 250 to 1000 nM each time.
With `N#Cc1ccc(-c2[nH]c3c(F)cc(F)cc3c2CCC(=O)N[C@@H](CO)C(F)(F)F)cc1` [Compound 234, 3-[2-(4-cyanophenyl)-5,7-difluoro-1H-indol-3-yl]-N-[(1S)-2,2,2-trifluoro-1-(hydroxymethyl)ethyl]propanamide], the half-maximal inhibitory concentration (IC50) on G1 APOL1 and on APOL1 G1 Protein was < 250 nM throughout.
`NC(=O)C1(NC(=O)CCc2c(-c3ccc(F)cc3)[nH]c3ccc(F)cc23)CC1` [Compound 20]: the IC50 at G1 APOL1 and at APOL1 G1 Protein was > 1000 nM throughout.
In the case of `CC(C#N)(CO)NC(=O)CCc1c(-c2ccc(F)cc2)[nH]c2ccc(F)cc12` (racemic) [Compound 33], the IC50 on G1 APOL1 and on APOL1 G1 Protein was > 1000 nM each time.
As for `O=C(CCc1c(-c2ccc(F)cc2)[nH]c2c(F)cc(F)cc12)N1CCC[C@@H]1CO` [Compound 117], the half-inhibitory concentration (IC50) is > 1000 nM at G1 APOL1 and 250 to 1000 nM at APOL1 G1 Protein.
The matching figures for `CC(=O)NCCCCc1c(-c2ccc(F)cc2)[nH]c2c(F)cc(F)cc12` [Compound 512, N-[4-[5,7-difluoro-2-(4-fluorophenyl)-1H-indol-3-yl]butyl]acetamide]: 250 to 1000 nM and 250 to 1000 nM.
In the case of `O=C(CCc1c(-c2ccc(F)cc2)[nH]c2c(F)cc(F)cc12)N[C@H]1CC[C@@H](O)C1` [Compound 179], the half-maximal inhibitory concentration (IC50) on G1 APOL1 and at APOL1 G1 Protein was > 1000 nM throughout.
For the compound `O=C(CCc1c(-c2ccc(F)cc2)[nH]c2c(F)cc(F)cc12)NC1(CO)COC1` [Compound 126], the concentration for half-maximal inhibition (IC50) on G1 APOL1 and at APOL1 G1 Protein was 250 to 1000 nM in each case.
On to `CC(=O)OCC(CO)NC(=O)CCc1c(-c2ccc(F)cc2)[nH]c2c(F)cc(F)cc12` (stereo not drawn) [Compound 141], for which the IC50 at G1 APOL1 and at APOL1 G1 Protein was 250 to 1000 nM in each case.
For the compound `CC(=O)NCCSc1c(-c2ccc(F)cc2)[nH]c2c(F)cc(F)cc12` [Compound 509, N-[2-[[5,7-difluoro-2-(4-fluorophenyl)-1H-indol-3-yl]sulfanyl]ethyl]acetamide], the 50% inhibitory concentration (IC50) at G1 APOL1 and at APOL1 G1 Protein was < 250 nM in each case.
Turning to `O=C(CCc1c(-c2ccc(F)cc2)[nH]c2ccc(F)cc12)N[C@@H](CO)C(F)(F)F` [Compound 1, 3-[5-fluoro-2-(4-fluorophenyl)-1H-indol-3-yl]-N-[(1S)-2,2,2-trifluoro-1-(hydroxymethyl)ethyl]propanamide], the half-inhibitory concentration (IC50) at G1 APOL1 and at APOL1 G1 Protein was < 250 nM each time.
As for `CNC(=O)C(C)NC(=O)CCc1c(-c2ccc(F)cc2)[nH]c2ccc(F)cc12` (racemic) [Compound 11], the IC50 on G1 APOL1 and on APOL1 G1 Protein was 250 to 1000 nM throughout.
With `O=C(CCc1c(-c2ccc(F)cc2)[nH]c2ccc(F)cc12)N[C@H]1CC[C@H]1O` [Compound 14], the IC50 on G1 APOL1 and on APOL1 G1 Protein was 250 to 1000 nM in each case.
In the case of `CC1(C)COC(=O)C1NC(=O)CCc1c(-c2ccc(F)cc2)[nH]c2c(F)cc(F)cc12` (stereo not drawn) [Compound 193], the concentration for half-maximal inhibition (IC50) at G1 APOL1 and on APOL1 G1 Protein was > 1000 nM throughout.
As to `NCC1CCCCN1C(=O)CCc1c(-c2ccc(F)cc2)[nH]c2ccc(F)cc12` (stereo not drawn) [Compound 53], the IC50 on G1 APOL1 and on APOL1 G1 Protein was > 1000 nM each time.
